# Assay results taken from publication PMC12247024, “PCFT‐Independent Cellular Uptake of Cyclic Cell‐Penetrating Peptide‐Conjugated Folic Acid” (Chembiochem, 2025).
# Positions of bridges follow the written chain, without caps; N, C: chain ends. Residues, ends and D or L forms follow the SMILES beside them.
# Assays:
# Caco‐2 cells [1] = experiment: Cellular uptake of fluorophore‐labeled linear and cyclic peptides; format: cell-based; details: Caco‐2, fluorophore‐labeled peptides, fluorescence microscopy and cell lysates by microplate reader
# Experimental: (§1) Caco‐2 and HD‐11 cells were then seeded in six‐well plates at a density of 2.0 × 10^5 cells per well, in 2 mL of RPMI no folic acid medium. After overnight incubation, the cells were further incubated for 4 h with fluorescent folic acid and with cTAT‐folic acid‐FL conjugates (4.5 μM) at 37 °C in a humidified atmosphere containing 5% CO2. The cells were washed with PBS, and relative fluorescence of the samples was analyzed with the microplate reader using excitation wavelength of 490 nm and emission wavelength of 520 nm.
# (§2) Compared with the linear peptides, cyclic analogs are well documented for enhanced physiological stability and resistance to enzymatic degradation.^[ [20], [21], [22] ^]
# [2] = test system: DHFR activity in Caco‐2 cell lysates; experiment: DHFR assay in lysates of treated cells; format: cell-based; details: for DHFR activity in cell lysates: Caco‐2 treated at acidic pH for 4 h, NADPH absorbance 340 nm, mean, n = 3
# Experimental: DHFR kit was purchased from Millipore Sigma and was used to analyze DHFR activity, according to manufacturer's protocol. DHFR enzyme catalyzes the reduction of dihydrofolic acid to tetrahydrofolic acid, which is reversible and NADPH‐dependent reaction.
# Dihydrofolic acid + NADPH + H^+ ↔ Tetrahydrofolic acid + NADP^+
# Briefly, 20 μM NADPH, 15 μM DHF, 5 μM DHFR, 50 mM Tris (pH 7.5), and 2 mg mL^−1 of cell lysates from Caco‐2 samples treated with 4.5 μM of cTAT‐folic acid conjugates and 20 μM folic acid were added to obtain final volume of 100 μL. DHFR activity at room temperature was monitored by continuously measuring the drop in NADPH concentration, by taking the absorbance at 340 nm for up to 2.5 min.
# Figure 3 DHFR activity in units/mg of protein in Caco‐2 cells lysates, performed 4‐h post‐treatment. A) Cotreatment of cells with folic acid, cTAT‐folic acid conjugates, and myricetin and B) treatment of cell lysates with methotrexate (MTX). The values are mean ± standard error for n = 3, *p < 0.01. Units per mg indicate DHFR activity per mg of protein in the sample, where total protein content (mg) in each sample was measured by BCA assay.
# trypsin = test system: T1, trypsin; experiment: Trypsin treatment, intact peptide by HPLC; format: in vitro ADME; details: isolated enzyme trypsin
# T1 construct: purchased Sigma Aldrich / VWR Life Sciences
# Source text: as §2
# [3] = RP‐HPLC ACN elution (relative hydrophobicity); format: physicochemical; details: PFP column, water/acetonitrile gradient 5%–95% with 0.1% TFA, detection 220 nm, used by the paper as measure of overall hydrophobicity
# Source text: Peptides were purified using a reverse‐phase high‐performance liquid chromatography (RP‐HPLC) system, Agilent Technologies (Santa Clara, CA, USA), with water and acetonitrile gradient (5%–95%), containing 0.1% TFA as the mobile phase. Pentafluorophenyl (PFP) column was used as the stationary phase, and samples were detected at the absorbance of 220 nm. Electronic spray ionization‐mass spectrometry (ESI‐MS) was used to determine the molecular weights of the synthesized peptides. Mass spectrometry data were provided by the AIMS Mass Spectrometry Laboratory at the University of Toronto. The peptide conjugates were characterized by electrospray ionization mass spectrometry (ESI‐MS) with agreement between the predicted and experimental molecular weights (Table 1). The peptides, cTAT‐folic acid conjugates, and fluorescein‐labeled conjugates were assessed for the peptide purity by analytical RP‐HPLC system (Figure S6–S11, Supporting Information). The broader peaks, peak splitting, and lower signaling intensity of cyclic peptide and their conjugates in the chromatograms are due to the limited interactions of the peptides with the HPLC columns. The appearance of double peaks for TAMRA conjugated linear and cyclic peptides and of folic acid is likely due to the use of 5‐ and 6‐TAMRA isomer, since isomeric dye conjugated molecules tend to show multiple peaks in RP‐HPLC.^[ [23] ^] […] The bioconjugation of folic acid with cTAT increased the overall hydrophobicity of the cyclic peptide (%ACN elution change from 24% to 34% for cTAT and cTAT‐folic acid respectively), and the ACN elution profile of the conjugates was similar to that of folic acid (Table 1).
# HD‐11 cells = experiment: Cellular uptake of fluorophore‐labeled linear and cyclic peptides; format: cell-based, chicken; details: HD‐11, fluorophore‐labeled peptides, fluorescence microscopy and cell lysates by microplate reader
# Experimental: as §1, §2
# [4] = test system: PCFT expression in Caco‐2 cells; experiment: WB analysis of PCFT/GAPDH expression; format: cell-based; details: Caco‐2, 50 μM, p < 0.01
# Experimental: Caco‐2 cells were seeded in six well culture plate at 1 × 10^6 cells per well in RPMI 1640 folic acid negative medium for 24 h followed by the addition of folic acid, cTAT, and cTAT‐folic acid conjugates (0.1–200 μM) for 4 h. 0.5 mL of pre‐chilled RIPA lysis buffer at 4 °C was added to Caco‐2 cells in six‐well plate. The cell samples were scraped and centrifuged at 14 000 × g to remove cellular debris. The amount of protein in cell lysate was measured by using BCA assay. The protein samples (25 μg) were loaded directly onto 12% Tris·HCl polyacrylamide gels using 6X SDS loading buffer (1:1) containing DTT, and gel was run for 1 h at 110 V. After SDS‐PAGE, proteins were transferred to nitrocellulose membrane for 80 min at 110 V (Bio‐rad, Hercules, California, USA). […] Figure 2 PCFT/GAPDH expression in Caco‐2 cells was measured by the WBs as a function of concentration of, A) folic acid, B) cTAT‐folic acid conjugates, and C) comparison of cTAT‐folic acid conjugates (4.5 μM) with unconjugated cTAT + folic acid (4.5 μM).The experiments were replicated twice in triplicates (n = 3) and upon 4 h post‐treatment. […]
# [5] = Trypsin treatment, intact peptide by HPLC; format: in vitro ADME; details: isolated enzyme trypsin, trypsin, HPLC chromatogram analysis, read-out: intact peptide after trypsin treatment
# Source text: as §2
# Caco‐2 cells [6] = experiment: Cellular uptake of fluorescein‐labeled folic acid and conjugates; format: cell-based; details: Caco‐2, 4.5 μM
# Experimental: as §1
# The cellular uptake of fluorophore‐labeled folic acid (folic acid‐FL) and cTAT‐folic acid conjugates (cTAT‐folic acid‐FL) was studied at 4.5 μM concentration in Caco‐2 cells, at the physiological and acidic pH.
# Figure 1 Cellular uptake of fluorescein‐labeled folic acid and cTAT‐folic acid conjugates (4.5 μM) in Caco‐2 cells in the presence and absence of inhibitors at A) acidic and B) physiological pH. C) WB analysis of PCFT/GAPDH expression in Caco‐2 cells in the presence of 50 μM myricetin. The experiments were replicated in triplicates (n = 3). The values are mean ± standard error for n = 3, *p < 0.01.
# [7] = test system: IL‐1β and IFN‐β production in HD‐11 cells; experiment: Cytokine release (ELISA) upon IBDV infection; format: cell-based, chicken; details: HD‐11, IBDV at TCID50 for 1 h, then folic acid 20 μM or cTAT‐folic acid 4.5 μM, n = 3, p < 0.01
# Experimental: A modified live IBDV vaccine, UNIVAX‐BDmild strain (ST12) from MSD Animal Health, was reconstituted with10 mL of PBS, and 500 μL aliquots were stored at −80 °C, according to previously reported procedures.^[ [25] ^] An aliquot of the vaccine was added to a tissue culture‐treated T‐25 flask containing confluent HD‐11 cells, and the flask was incubated at 37 °C with 5% CO2 for 1 h to reproduce the virus and to obtain multiplicity of infection (MOI = 1). Following this, 5 mL of media was added, and the cells were incubated for 72 h under the same conditions. After that, the supernatant was extracted, centrifuged for 10 min at 1000 × g, and 500 μL aliquots were taken out and kept at −80 °C to evaluate 50% tissue culture infective‐dose assay (TCID50) in HD‐11. […] The plate was incubated at 37 °C with 5% CO2 for 4 h, and TCID50 was evaluated by MTS assay, as described above.
# HD‐11 and RAW 264.7 cells were cultured in folic acid free RPMI containing 10% FBS and 1% penicillin–[…] solution. […] After 24 h of incubation, cell culture supernatant were collected, and production of chicken IL‐1β and IFN‐β cytokines in HD‐11 was evaluated in triplicate by ELISA kits purchased from Genorise Scientific Inc. (Berwyn, PA 19 312, United States). The production of mouse IL‐1β, TNF‐α and IL‐10 was quantified in RAW 264.7 cells in triplicates by ELISA assay. […]
# [8] = test system: IL‐1β, TNF‐α and IL‐10 production in RAW 264.7 cells; experiment: Cytokine release (ELISA) upon LPS challenge; format: cell-based, mouse; details: RAW264.7, LPS for 1 h, then folic acid 20 μM or cTAT‐folic acid 4.5 μM, n = 3, p < 0.01
# Experimental: HD‐11 and RAW 264.7 cells were cultured in folic acid free RPMI containing 10% FBS and 1% penicillin–[…] solution. Cytokine release profile from HD‐11 chicken macrophage cells and RAW 264.7 […] macrophage cells was studied by treating cells in growth phase (≈70% confluency) with 1 μg mL^−1 LPS or with IBDV at TCID50 for 1 h, followed by the addition of folic acid (20 μM) and cTAT‐folic acid conjugates (4.5 μM) in serum‐free, folic acid‐negative RPMI‐1640 medium. After 24 h of incubation, cell culture supernatant were collected, and production of chicken IL‐1β and IFN‐β cytokines in HD‐11 was evaluated in triplicate by ELISA kits purchased from Genorise Scientific Inc. (Berwyn, PA 19 312, United States). The production of mouse IL‐1β, TNF‐α and IL‐10 was quantified in RAW 264.7 cells in triplicates by ELISA assay.
# Figure 4 ELISA assay showing A) cytokine expression in HD‐11 cells upon IBDV infection for 1 h, followed by the treatment with folic acid (20 μM) and cTAT‐folic acid conjugates (4.5 μM), and B) cytokine expression (IL‐1β, IL‐10, and TNF‐α) upon LPS (0.5 μg mL^−1) challenge of RAW 264.7 for 1 h, followed by the treatment with folic acid (20 μM) and cTAT‐folic acid conjugates (4.5 μM) for 4 h. The values are mean ± standard error for n = 3, *p < 0.01 and **p < 0.05.
# [9] = folic acid 20 μM, cTAT‐folic acid 4.5 μM
molecule,measurement,setting,value
N=C(N)NCCC[C@@H]1NC(=O)[C@H](CCCCN)NC(=O)[C@H](CCCCN)NC(=O)[C@H](CCCNC(=N)N)NC(=O)[C@H](CCCNC(=N)N)NC(=O)[C@H](CCC(N)=O)NC(=O)[C@H](CCCNC(=N)N)NC(=O)[C@H](CCCNC(=N)N)NC(=O)[C@H](CCCNC(=N)N)NC(=O)[C@@H](N)CCCCNC(=O)CC[C@@H](C(N)=O)NC(=O)[C@H](Cc2ccc(O)cc2)NC(=O)CNC1=O [cTAT] (H-KRRRQRRKKRGYE-NH2; lactam 1-13),"cellular uptake, cyclic versus linear peptide",Caco‐2 cells [1],significantly higher cellular uptake
same,DHFR activity in cell lysates,[2]; [9],no significant DHFR activity
same,remaining at 1 h,trypsin,49%
same,remaining at 20 h,trypsin,27%
same,ACN elution [%],[3],24%
same,"cellular uptake, cyclic versus linear peptide",HD‐11 cells,significantly higher cellular uptake
O=c1c(O)c(-c2cc(O)c(O)c(O)c2)oc2cc(O)cc(O)c12 [myricetin],PCFT expression compared with the untreated cells,[4],significantly downregulated
N=C(N)NCCC[C@H](NC(=O)[C@H](CCCCN)NC(=O)[C@H](CCCCN)NC(=O)[C@H](CCCNC(=N)N)NC(=O)[C@H](CCCNC(=N)N)NC(=O)[C@H](CCC(N)=O)NC(=O)[C@H](CCCNC(=N)N)NC(=O)[C@H](CCCNC(=N)N)NC(=O)[C@H](CCCNC(=N)N)NC(=O)[C@@H](N)CCCCN)C(=O)NCC(=O)N[C@@H](Cc1ccc(O)cc1)C(=O)N[C@@H](CCC(=O)O)C(N)=O [linear peptide] (H-KRRRQRRKKRGYE-NH2; N-terminus assumed),"cellular uptake, cyclic versus linear peptide",Caco‐2 cells [1],lower uptake at all studied time points
same,remaining at 1 h,[5]; 1 h incubation,36%
same,remaining at 20 h,[5]; 20 h post‐treatment,15%
same,"cellular uptake, cyclic versus linear peptide",HD‐11 cells,lower uptake at all studied time points
"CONH2‐c[EYGRKKRRQRRRK]C(FL)‐NH‐folic acid (sidechain bridge or staple) [cTAT‐folic acid‐FL, fluorescein‐labeled cTAT‐folic acid conjugate, fluorescein on an inserted Cys]",ACN elution [%],[3],29.86%
same,difference in cellular uptake between acidic and physiological pH,Caco‐2 cells [6],no significant difference
same,cellular uptake upon ethanol treatment of the cells,Caco‐2 cells [6]; physiological and acidic pH,only partially inhibited
Nc1nc(=O)c2nc(CNc3ccc(C(=O)N[C@@H](CCC(=O)O)C(=O)O)cc3)cnc2[nH]1 [Folic acid],production of proinflammatory cytokines in challenged macrophages,[7],reduced the production of proinflammatory cytokines
same,"DHFR activity in cell lysates, cotreatment with myricetin","[2]; Caco‐2, acidic pH, 4 h, folic acid 20 μM, cTAT‐folic acid 4.5 μM, plus myricetin",10 units mg^−1 of protein
same,DHFR activity in MTX‐treated cell lysates,[2]; Caco‐2 lysates plus methotrexate 100 μM,negligible DHFR activity
same,DHFR activity in cell lysates,[2]; [9],59 units mg^−1 of protein
same,ACN elution [%],[3],34.06%
same,production of proinflammatory cytokines in challenged macrophages,[8],reduced the production of proinflammatory cytokines
